Source: patent US7799775B2, “Pyrimidine derivatives” (ASKA Pharmaceutical Co., Ltd., priority 2004, dated 2010)

Experiments:
[1] = system: rats under restraint stress; assay: Measurement of defecation acceleration in rats under restraint stress; type: in vivo, rat; conditions: 1 hour restraint stress, group average (Normal 1.7, Control 6.8)
Method: (5) Measurement of Defecation Acceleration in Rats under Restraint Stress […] Feed and drinking water were left for their free ingestion until the morning of the day on which the test was given. On the day of the experiment, test compounds were orally administered and positive control solution (the used compounds were dissolved in 1N-hydrochloric acid and diluted with a suitable amount of saline) was administered intraperitoneally. Five (5) minutes thereafter, under lightly anesthetized condition, the rats were placed under restraint stress, with their upper half of the bodies including the front feet immobilized with gum tape. The restraint stress loading was conducted for an hour, and the number of excrements discharged during that period was counted. […] Those compounds which were used as the positive control chemicals used in the acceleration of defecation in rats under restraint stress are identified with the following structures.

human 5-HT3 receptor = target: T1, human 5-HT3 receptor (Homo sapiens, UniProt P46098); assay: Measurement of affinity to human 5-HT3 receptor (in vitro), [3H]BRL-43694 binding; conditions: test compound 100 nmols/L; [3H]BRL-43694 0.5 nmols/L; HEK-293 cell membrane expressing human 5-HT3 receptor; read-out: Percent Inhibition (%) on Each Receptor's Binding at 10^−7M, 5-HT3
T1 construct: purchased BIOLINKS K.K; host or cells: HEK-293 cells (membrane preparation)
T1 sequence (P46098 24-478): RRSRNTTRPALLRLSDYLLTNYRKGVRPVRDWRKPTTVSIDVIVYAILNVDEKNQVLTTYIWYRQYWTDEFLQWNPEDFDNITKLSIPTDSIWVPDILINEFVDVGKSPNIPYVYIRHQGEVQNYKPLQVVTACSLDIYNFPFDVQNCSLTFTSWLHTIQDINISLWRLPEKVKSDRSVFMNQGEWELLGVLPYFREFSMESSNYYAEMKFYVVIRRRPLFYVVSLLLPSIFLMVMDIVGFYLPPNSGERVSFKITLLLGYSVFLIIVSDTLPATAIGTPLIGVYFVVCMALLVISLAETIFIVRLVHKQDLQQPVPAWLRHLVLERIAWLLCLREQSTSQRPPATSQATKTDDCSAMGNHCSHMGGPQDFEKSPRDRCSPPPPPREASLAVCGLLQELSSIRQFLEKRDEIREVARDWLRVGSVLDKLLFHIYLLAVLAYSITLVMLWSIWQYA
In short: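 Membranes from HEK-293 cells expressing the receptor were incubated with 0.5 nmol/L radioligand and compound for 60 min at 25 °C in Tris/MgCl2/EDTA buffer, pH 7.5. Bound radioactivity was collected by filtration and counted. Percent inhibition was corrected for non-specific binding defined with 10 μmol/L tropisetron; compounds were tested at 100 nmol/L.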

Compound | inhibition at 0.1 µM (human 5-HT3 receptor) [%] | also measured
Cc1cc(N2CCN(CCCCc3nc4c(c(=O)n3C)CCCC4)CC2)nc2ccccc12 [Example 7-6, 3-methyl-2-[4-[4-(4-methylquinolin-2-yl)piperazin-1-yl]butyl]-5,6,7,8-tetrahydro-3H-quinazolin-4-one] | 93.8 | Number of excrements ([1]; 1 mg/kg oral administration): 5.4; Number of excrements ([1]; 3 mg/kg oral administration): 4.0; Number of excrements ([1]; 10 mg/kg oral administration): 2.9
CCn1c(CCCCN2CCN(c3ccc4ccccc4n3)CC2)nc2c(c1=O)CCCC2 [Example 7-2, 3-2-[4-(4-quinolin-2-ylpiperazin-1-yl)butyl]-5,6,7,8-tetrahydro-3H-quinazolin-4-one] | 94.5 | 
c1cc2ccsc2c(N2CCN3CCC[C@H]3C2)n1 [Production Example 103, 7-((8aS)-octahydropyrrolo[1,2-a]pyrazin-2-yl)thieno[2,3-c]pyridine] | 99.5 | 
CCn1c(CCCCN2CCN(c3cc(C)c4ccccc4n3)CC2)nc2c(c1=O)CCCC2 [Example 7-7, 3-ethyl-2-[4-[4-(4-methylquinolin-2-yl)piperazin-1-yl]butyl]-5,6,7,8-tetrahydro-3H-quinazolin-4-one] | 95 | 
Nn1c(CCCCN2CCN(c3ccc4ccccc4n3)CC2)nc2cccc(Cl)c2c1=O [Example 4-25, 3-amino-5-chloro-2-[4-(4-quinolin-2-ylpiperazin-1-yl)butyl]-3H-quinazolin-4-one] | 43.3 | 
Clc1ccc2ccnc(N3CCNCC3)c2c1 [Production Example 49, 7-chloro-1-piperazin-1-ylisoquinoline] | 96.3 | 
Cc1ccc2ccnc(N3CCN(C)CC3)c2c1 [Production Example 47, 7-methyl-1-(4-methylpiperazin-1-yl)isoquinoline] | 93.6 | 
COc1ccc2ccnc(N3CCN4CCC[C@H]4C3)c2c1 [Production Example 72, 1-((8aS)-octahydropyrrolo[1,2-a]pyrazin-2-yl)-7-methoxyisoquinoline] | 99.8 | 
Clc1ccc2ccnc(N3CCN4CCC[C@H]4C3)c2c1 [Production Example 73, 7-chloro-1-((8aS)-octahydropyrrolo[1,2-a]pyrazin-2-yl)isoquinoline] | 99.3 | 
CN1CCN(c2nccc3ccsc23)CC1 [Production Example 6, 7-(4-methylpiperazin-1-yl)thieno[2,3-c]pyridine] | 97.5 | 
Nn1c(CCCCN2CCN(c3ccc4ccccc4n3)CC2)nc2ccccc2c1=O [Example 4-3, 3-amino-2-[4-(4-quinolin-2-ylpiperazin-1-yl)butyl]-3H-quinazolin-4-one] | 83.6 | 
CN1CCN(c2nccc3sccc23)CC1 [Production Example 8, 4-(4-methylpiperazin-1-yl)thieno[3,2-c]pyridine] | 93.3 | 
Cc1cc(N2CCN(CCCCc3nc4ccccc4c(=O)n3N)CC2)nc2ccccc12 [Example 4-4, 3-amino-2-[4-[4-(4-methylquinolin-2-yl)piperazin-1-yl]butyl]-3H-quinazolin-4-one] | 78.6 | 
COc1ccc2ccnc(N3CCNC(C)C3)c2c1 (stereo not shown) [Production Example 38, 7-methoxy-1-(3-methylpiperazin-1-yl)isoquinoline] | 93.1 | 
Cn1c(CCCCN2CCN(c3ccc4ccccc4n3)CC2)nc2ccccc2c1=O [Example 7-20, 3-methyl-2-[4-(4-quinolin-2-ylpiperazin-1-yl)butyl]-3H-quinazolin-4-one] | 92.9 | Number of excrements ([1]; 1 mg/kg oral administration): 5.4; Number of excrements ([1]; 3 mg/kg oral administration): 3.6; Number of excrements ([1]; 10 mg/kg oral administration): 2.4
Nn1c(CCCCN2CCN(c3ccc4ccccc4n3)CC2)nc2c(c1=O)CCCC2 [Example 4-1, 3-amino-2-[4-(4-quinolin-2-ylpiperazin-1-yl)butyl]-5,6,7,8-tetrahydro-3H-quinazolin-4-one] | 81.2 | Number of excrements ([1]; 0.3 mg/kg intraperitoneal administration): 5.3; Number of excrements ([1]; 1 mg/kg intraperitoneal administration): 4.3; Number of excrements ([1]; 3 mg/kg intraperitoneal administration): 2.1
c1cc2ccsc2c(N2CCN3CCC[C@@H]3C2)n1 [Production Example 108, 7-((8aR)-octahydropyrrolo[1,2-a]pyrazin-2-yl)thieno[2,3-c]pyridine] | 100 | 
Cc1cc2c(N3CCN4CCC[C@H]4C3)nccc2s1 [Production Example 107, 4-((8aS)-octahydropyrrolo[1,2-a]pyrazin-2-yl)-2-methylthieno[3,2-c]-pyridine] | 95.9 | 
Nn1c(CCCCN2CCN(c3ccc4ccccc4n3)CC2)nc2ccsc2c1=O [Example 4-18, 3-amino-2-[4-(4-quinolin-2-ylpiperazin-1-yl)butyl]-3H-thieno[3,2-d]-pyrimidin-4-one] | 50.9 | 
c1cc2sccc2c(N2CCN3CCC[C@H]3C2)n1 [Production Example 104, 4-((8aS)-octahydropyrrolo[1,2-a]pyrazin-2-yl)thieno[3,2-c]pyridine] | 99.3 | 
c1cc2ccoc2c(N2CCN3CCC[C@H]3C2)n1 [Production Example 102, 7-((8aS)-octahydropyrrolo[1,2-a]pyrazin-2-yl)furo[2,3-c]-pyridine] | 98.9 | 
Cn1c(CCCCN2CCN(c3ccc4ccccc4n3)CC2)nc2c(c1=O)CCCC2 [Example 7-1, 3-methyl-2-[4-(4-quinolin-2-ylpiperazin-1-yl)butyl]-5,6,7,8-tetrahydro-3H-quinazolin-4-one] | 94.2 | Number of excrements ([1]; 1 mg/kg oral administration): 5.8; Number of excrements ([1]; 3 mg/kg oral administration): 3.8; Number of excrements ([1]; 10 mg/kg oral administration): 2.3
